According to ChEMBL document CHEMBL1201862, “PubChem BioAssay data set” (2004):
The source made the active and inactive calls.

Legend:
Tumor necrosis factor = Tumor necrosis factor (Homo sapiens, UniProt P01375); assay: analog potency on TNFa NF-kB signaling – cell-based, revised, SAR follow-up (AID 2337); type: functional
HEK293 = assay: cells; conditions: Homo sapiens;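 further: cells exposed to compound for 14 hours overnight before viability readout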
[1] = molecular target: Nucleotide-binding oligomerization domain-containing protein 2 (Homo sapiens, UniProt Q9HC29); assay: PubChem AID 2334; type: functional
[2] = molecular target: T1, Nucleotide-binding oligomerization domain-containing protein 1 (Homo sapiens, UniProt Q9Y239); assay: blockers of NOD1 pathway activity – revised, SAR follow-up (AID 2333); type: functional
T1 sequence (Q9Y239 whole entry): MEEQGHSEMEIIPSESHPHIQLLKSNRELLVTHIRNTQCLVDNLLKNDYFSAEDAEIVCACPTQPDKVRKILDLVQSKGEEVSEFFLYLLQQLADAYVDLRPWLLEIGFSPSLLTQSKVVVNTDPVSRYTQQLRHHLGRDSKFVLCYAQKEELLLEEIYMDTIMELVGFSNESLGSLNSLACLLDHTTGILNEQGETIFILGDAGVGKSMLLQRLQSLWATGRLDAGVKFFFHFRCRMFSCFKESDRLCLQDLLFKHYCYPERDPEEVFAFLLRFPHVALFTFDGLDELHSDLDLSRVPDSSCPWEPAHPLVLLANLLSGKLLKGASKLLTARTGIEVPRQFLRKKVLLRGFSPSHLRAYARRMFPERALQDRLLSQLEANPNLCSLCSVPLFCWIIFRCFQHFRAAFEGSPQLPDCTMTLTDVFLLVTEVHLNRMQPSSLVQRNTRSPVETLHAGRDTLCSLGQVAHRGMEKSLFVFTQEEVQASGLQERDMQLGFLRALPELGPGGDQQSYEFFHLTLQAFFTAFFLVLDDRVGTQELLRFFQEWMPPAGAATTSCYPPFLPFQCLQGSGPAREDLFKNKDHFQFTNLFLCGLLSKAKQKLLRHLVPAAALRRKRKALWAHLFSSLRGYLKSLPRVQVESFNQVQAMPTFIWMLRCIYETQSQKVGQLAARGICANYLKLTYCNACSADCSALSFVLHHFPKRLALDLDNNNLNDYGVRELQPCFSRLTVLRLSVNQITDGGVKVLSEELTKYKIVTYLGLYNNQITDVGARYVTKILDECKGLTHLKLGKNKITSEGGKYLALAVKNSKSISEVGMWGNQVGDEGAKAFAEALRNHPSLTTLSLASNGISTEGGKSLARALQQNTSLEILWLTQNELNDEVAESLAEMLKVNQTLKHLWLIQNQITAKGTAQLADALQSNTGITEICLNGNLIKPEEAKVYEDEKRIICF

Caspase-7 = Caspase-7 (Homo sapiens, UniProt P55210); assay: caspase-7 enzyme inhibition, selectivity check – biochemical, DEVD-R110 fluorescence, cherry-pick, selectivity assay for caspase-6 inhibitor project, dose response (AID 743295); type: functional
[3] = molecular target: Intestinal-type alkaline phosphatase (Homo sapiens, UniProt P09923); assay: Dose Response confirmation of uHTS hits from a small molecule inhibitors of human intestinal alkaline phosphatase via a luminescent assay. [Related pubchem assays (depositor defined):AID2544, AID2574]; type: functional
Caspase-6 = Caspase-6 (Homo sapiens, UniProt P55212); assay: inhibition of CASP6 peptide cleavage – biochemical, VEID-R110 fluorescence, cherry-pick, dose response (AID 720632)
[4] = molecular target: Induced myeloid leukemia cell differentiation protein Mcl-1 (Homo sapiens, UniProt Q07820); type: functional
Caspase-3 = molecular target: T2, Caspase-3 (Homo sapiens, UniProt P42574); assay: human caspase-3 protease activity blockade – biochemical, fluorescence, cherry-picked samples, selectivity assay for caspase-6 allosteric inhibitor project, dose response (AID 743291)
T2 sequence (P42574 whole entry): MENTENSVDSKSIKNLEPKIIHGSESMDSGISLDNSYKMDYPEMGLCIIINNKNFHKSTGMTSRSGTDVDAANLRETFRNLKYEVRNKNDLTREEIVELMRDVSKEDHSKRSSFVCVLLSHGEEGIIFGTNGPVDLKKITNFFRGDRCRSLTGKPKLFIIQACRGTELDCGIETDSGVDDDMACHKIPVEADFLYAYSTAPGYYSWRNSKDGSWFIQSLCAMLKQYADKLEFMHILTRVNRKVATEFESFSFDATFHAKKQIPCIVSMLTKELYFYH

Caspase-8 = Caspase-8 (Homo sapiens, UniProt Q14790); assay: inhibitors of purified CASP8 protease – biochemical, Z-IETD-R110 fluorescence, cherry-picked samples, selectivity assay for caspase-6 inhibitor project, dose response (AID 743294)
Large T antigen = Large T antigen (Simian virus 40, UniProt P03070); type: functional, Betapolyomavirus macacae;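 further: Confirmatory-stage PubChem screen for compounds that inhibit SV40 T antigen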
Albumin = Albumin (Bos taurus, UniProt P02769); assay: Counterscreen for inhibitors of T-cell receptor (TCR)-CD3 interaction: Fluorescence-based biochemical high throughput dose response assay to identify inhibitors of T-cell receptor (TCR)-CD3 interaction using a TAMRA-labeled BSA probe.; type: functional
J774.A1 = assay: Confirmation of image-based Screening Assay for Inhibitors of Phagocytosis. [Related pubchem assays (depositor defined):AID1029, AID1643]; type: functional, cell-based; conditions: Mus musculus
[5] = HEK-293T viability loss after treatment – luminescence, T-cell screen hits, cytotoxicity control for TCR NF-kB inhibitor project, dose response (AID 489026); type: functional, cell-based;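 further: cells exposed to compound about 14 hours before the viability readout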
[6] = microbe, parasite or virus in culture; type: functional; conditions: Mycobacterium tuberculosis
Aminopeptidase N = molecular target: T3, Aminopeptidase N (Plasmodium falciparum FcB1/Columbia, UniProt O96935); assay: malaria alanyl aminopeptidase activity blockers – biochemical, fluorogenic H-Leu-NHMec substrate, 1536-well (AID 1445); parameters: species or system Plasmodium falciparum 3D7, 3D7
T3 sequence (O96935 whole entry): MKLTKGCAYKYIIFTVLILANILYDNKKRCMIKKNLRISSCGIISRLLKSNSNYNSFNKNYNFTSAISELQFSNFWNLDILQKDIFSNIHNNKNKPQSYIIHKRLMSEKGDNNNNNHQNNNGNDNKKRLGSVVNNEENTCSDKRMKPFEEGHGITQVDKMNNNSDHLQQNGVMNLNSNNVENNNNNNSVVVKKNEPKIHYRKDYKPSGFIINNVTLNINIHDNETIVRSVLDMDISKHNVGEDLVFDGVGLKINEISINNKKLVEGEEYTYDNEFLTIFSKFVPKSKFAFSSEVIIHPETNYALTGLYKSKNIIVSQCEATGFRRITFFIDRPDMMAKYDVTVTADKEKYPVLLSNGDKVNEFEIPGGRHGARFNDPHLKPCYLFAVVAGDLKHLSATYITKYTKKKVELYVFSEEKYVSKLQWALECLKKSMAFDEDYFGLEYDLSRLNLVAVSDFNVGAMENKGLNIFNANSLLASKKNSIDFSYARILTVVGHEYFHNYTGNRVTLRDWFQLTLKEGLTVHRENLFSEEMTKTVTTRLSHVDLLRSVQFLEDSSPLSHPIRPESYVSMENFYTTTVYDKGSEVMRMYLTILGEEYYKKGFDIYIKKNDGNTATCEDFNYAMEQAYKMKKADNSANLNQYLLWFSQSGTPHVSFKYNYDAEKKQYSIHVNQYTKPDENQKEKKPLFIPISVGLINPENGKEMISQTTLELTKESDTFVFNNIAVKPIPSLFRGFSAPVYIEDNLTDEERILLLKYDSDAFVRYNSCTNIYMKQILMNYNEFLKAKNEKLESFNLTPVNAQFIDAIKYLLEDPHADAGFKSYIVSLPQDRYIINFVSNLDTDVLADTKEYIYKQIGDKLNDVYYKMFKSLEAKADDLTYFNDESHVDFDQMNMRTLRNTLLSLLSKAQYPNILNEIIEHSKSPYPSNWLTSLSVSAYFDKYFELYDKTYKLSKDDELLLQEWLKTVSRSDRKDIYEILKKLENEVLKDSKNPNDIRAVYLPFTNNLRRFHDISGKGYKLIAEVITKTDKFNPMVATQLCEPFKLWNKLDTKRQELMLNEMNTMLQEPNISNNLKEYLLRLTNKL

[7] = molecular target: Dual specificity protein phosphatase 3 (Homo sapiens, UniProt P51452); assay: Dose Response Confirmation of compounds that inhibit VHR1 in Fluorescent Assay. [Related pubchem assays (depositor defined):AID1661, AID1878]; type: functional
Leucine aminopeptidase = molecular target: T4, Leucine aminopeptidase (Plasmodium falciparum 3D7, UniProt Q8IL11); assay: P. falciparum M17LAP inhibitors, primary screen, biochemical, fluorogenic H-Leu-NHMec substrate, 1536-well (AID 1619); type: functional
T4 sequence (Q8IL11 whole entry): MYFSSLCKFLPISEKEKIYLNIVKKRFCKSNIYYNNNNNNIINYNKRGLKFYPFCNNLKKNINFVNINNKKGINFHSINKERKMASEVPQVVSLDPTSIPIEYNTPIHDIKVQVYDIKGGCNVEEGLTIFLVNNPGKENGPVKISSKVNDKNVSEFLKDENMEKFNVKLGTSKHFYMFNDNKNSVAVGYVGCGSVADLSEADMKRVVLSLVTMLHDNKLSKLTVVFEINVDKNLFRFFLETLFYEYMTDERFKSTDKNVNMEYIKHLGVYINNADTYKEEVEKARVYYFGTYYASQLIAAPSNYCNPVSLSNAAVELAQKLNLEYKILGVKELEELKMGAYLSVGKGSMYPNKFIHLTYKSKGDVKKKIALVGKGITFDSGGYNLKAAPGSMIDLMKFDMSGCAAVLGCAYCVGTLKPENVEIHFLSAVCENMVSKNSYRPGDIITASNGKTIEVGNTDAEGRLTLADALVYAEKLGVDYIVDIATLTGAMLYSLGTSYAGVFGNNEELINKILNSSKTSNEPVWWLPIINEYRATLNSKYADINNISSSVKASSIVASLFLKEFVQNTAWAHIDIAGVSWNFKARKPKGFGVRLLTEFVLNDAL

[8] = molecular target: Tyrosine-protein phosphatase non-receptor type 7 (Homo sapiens, UniProt P35236); assay: Dose Response confirmation of compounds that inhibit HePTP. [Related pubchem assays (depositor defined):AID1059, AID1661, AID2085]; type: functional
[9] = molecular target: Cystic fibrosis transmembrane conductance regulator/Golgi-associated PDZ and coiled-coil motif-containing protein (Homo sapiens, UniProt P13569+Q9HD26); assay: potency against CAL PDZ-peptide interaction – biochemical, fluorescence polarization, Cerulean-tagged CAL PDZ, cherry-picks, dose response (AID 504773)
Salmon testes DNA = assay: acridine orange-DNA binding displacement – biochemical, fluorescence polarization, cherry-picked samples, set 2, artefact control for KSHV LANA DNA-binding inhibitor project, dose response (AID 504727); parameters: species or system Salmonidae
[10] = rescue of ΔF508 CFTR function, airway epithelium – human bronchial epithelial cells, plate reader, cherry-pick, two tests, dose response (AID 743267); type: functional, cell-based
ORF 73 = ORF 73 (Human herpesvirus 8, UniProt O40947); assay: KSHV LANA DNA-binding disruption – biochemical, fluorescence polarization, cherry-picked samples, dose response (AID 504725); parameters: species or system Human gammaherpesvirus 8;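 further: fluorescence polarization of a labeled DNA duplex reporting LANA DNA binding; potency is for inhibitors that block LANA binding to the DNA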
[11] = system: Streptococcus sp. 'group A'; assay: Streptococcus pyogenes SK(-)GAS viability under kanamycin – luminescence, BacTiterGlo, confirmation, counter-screen for streptokinase expression inhibitor project, dose response (AID 1900); type: functional, organism-based
Streptokinase A = molecular target: T5, Streptokinase A (Streptococcus pyogenes serotype M1, UniProt P10520); assay: viability-normalized secreted streptokinase activity reduction – plasminogen activation absorbance, OD405, dose response (AID 1914); type: functional, Streptococcus pyogenes M1 GAS;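 further: secreted streptokinase activity via plasminogen activation per viability signal from cell pellet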
T5 sequence (P10520 whole entry): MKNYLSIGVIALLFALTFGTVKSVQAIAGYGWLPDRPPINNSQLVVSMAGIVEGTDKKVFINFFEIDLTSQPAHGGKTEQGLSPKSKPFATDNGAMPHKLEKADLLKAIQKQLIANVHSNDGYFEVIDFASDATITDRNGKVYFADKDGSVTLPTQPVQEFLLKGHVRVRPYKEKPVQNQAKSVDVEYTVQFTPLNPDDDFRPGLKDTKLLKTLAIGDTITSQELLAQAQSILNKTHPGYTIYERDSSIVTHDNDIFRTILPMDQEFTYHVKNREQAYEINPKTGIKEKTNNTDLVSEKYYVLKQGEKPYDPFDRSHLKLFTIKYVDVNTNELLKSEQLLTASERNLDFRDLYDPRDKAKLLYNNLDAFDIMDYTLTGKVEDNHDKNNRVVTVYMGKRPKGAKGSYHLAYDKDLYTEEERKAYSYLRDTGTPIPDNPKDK

Streptococcus = assay: GAS UMAA2166 growth inhibition – luminescence, BacTiterGlo, counter-screen for streptokinase expression inhibitor project, dose response (AID 1915); type: functional, organism-based;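 further: potency for reduction of bacterial viability or growth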
X-box-binding protein 1 = X-box-binding protein 1 (Homo sapiens, UniProt P17861); type: functional, Cricetulus griseus;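 further: confirmatory dose-response counter-screen serving a CHOP assay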
Chain of X-box-binding protein 1 (P17861 whole entry): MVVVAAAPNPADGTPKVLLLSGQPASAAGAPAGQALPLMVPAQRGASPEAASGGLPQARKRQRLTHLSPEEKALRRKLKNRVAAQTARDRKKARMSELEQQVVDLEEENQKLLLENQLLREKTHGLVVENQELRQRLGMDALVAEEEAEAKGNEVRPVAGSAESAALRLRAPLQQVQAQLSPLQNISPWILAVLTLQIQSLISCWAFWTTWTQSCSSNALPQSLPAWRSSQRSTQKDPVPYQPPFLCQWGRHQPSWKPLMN

Chain of Intestinal-type alkaline phosphatase (P09923 whole entry): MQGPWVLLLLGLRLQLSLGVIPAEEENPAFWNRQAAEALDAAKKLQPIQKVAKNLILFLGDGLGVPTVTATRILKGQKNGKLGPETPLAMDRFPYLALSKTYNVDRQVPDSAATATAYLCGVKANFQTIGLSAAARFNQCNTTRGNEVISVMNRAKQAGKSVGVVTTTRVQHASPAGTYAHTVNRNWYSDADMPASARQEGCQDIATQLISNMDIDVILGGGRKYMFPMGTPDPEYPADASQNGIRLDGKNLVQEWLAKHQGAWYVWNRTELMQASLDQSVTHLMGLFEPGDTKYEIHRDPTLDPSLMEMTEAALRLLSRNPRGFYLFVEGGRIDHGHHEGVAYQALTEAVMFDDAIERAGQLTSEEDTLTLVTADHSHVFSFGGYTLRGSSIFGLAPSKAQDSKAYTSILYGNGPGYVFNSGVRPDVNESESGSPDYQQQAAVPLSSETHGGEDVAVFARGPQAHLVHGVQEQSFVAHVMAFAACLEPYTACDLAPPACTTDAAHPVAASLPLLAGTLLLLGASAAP
Chain of Caspase-7 (P55210 24-198 limits assumed): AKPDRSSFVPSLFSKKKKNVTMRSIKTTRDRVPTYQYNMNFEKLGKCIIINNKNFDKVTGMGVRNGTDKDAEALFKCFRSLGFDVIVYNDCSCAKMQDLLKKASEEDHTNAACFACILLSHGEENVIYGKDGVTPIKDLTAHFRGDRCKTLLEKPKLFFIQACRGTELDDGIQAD
Chain of Caspase-7 (P55210 207-303 limits assumed): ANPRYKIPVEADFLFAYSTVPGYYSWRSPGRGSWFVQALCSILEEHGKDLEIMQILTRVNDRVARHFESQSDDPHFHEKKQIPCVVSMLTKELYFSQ
Chain of Caspase-8 (Q14790 217-374 limits assumed): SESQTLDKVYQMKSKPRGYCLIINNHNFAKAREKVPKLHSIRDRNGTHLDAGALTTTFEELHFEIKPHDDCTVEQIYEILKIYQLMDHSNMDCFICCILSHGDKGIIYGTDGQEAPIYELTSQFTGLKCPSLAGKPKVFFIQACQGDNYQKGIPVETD
Chain of Caspase-8 (Q14790 385-479 limits assumed): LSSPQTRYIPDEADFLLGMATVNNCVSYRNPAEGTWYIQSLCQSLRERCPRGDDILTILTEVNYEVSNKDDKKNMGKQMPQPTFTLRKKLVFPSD
Chain of Dual specificity protein phosphatase 3 (P51452 whole entry): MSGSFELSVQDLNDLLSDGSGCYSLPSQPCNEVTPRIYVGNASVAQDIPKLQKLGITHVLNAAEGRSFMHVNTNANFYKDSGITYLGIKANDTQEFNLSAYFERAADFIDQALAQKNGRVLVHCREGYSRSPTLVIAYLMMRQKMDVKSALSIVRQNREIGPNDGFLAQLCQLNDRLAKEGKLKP
Chain of Cystic fibrosis transmembrane conductance regulator/Golgi-associated PDZ and coiled-coil motif-containing protein (P13569 whole entry, other chains not shown): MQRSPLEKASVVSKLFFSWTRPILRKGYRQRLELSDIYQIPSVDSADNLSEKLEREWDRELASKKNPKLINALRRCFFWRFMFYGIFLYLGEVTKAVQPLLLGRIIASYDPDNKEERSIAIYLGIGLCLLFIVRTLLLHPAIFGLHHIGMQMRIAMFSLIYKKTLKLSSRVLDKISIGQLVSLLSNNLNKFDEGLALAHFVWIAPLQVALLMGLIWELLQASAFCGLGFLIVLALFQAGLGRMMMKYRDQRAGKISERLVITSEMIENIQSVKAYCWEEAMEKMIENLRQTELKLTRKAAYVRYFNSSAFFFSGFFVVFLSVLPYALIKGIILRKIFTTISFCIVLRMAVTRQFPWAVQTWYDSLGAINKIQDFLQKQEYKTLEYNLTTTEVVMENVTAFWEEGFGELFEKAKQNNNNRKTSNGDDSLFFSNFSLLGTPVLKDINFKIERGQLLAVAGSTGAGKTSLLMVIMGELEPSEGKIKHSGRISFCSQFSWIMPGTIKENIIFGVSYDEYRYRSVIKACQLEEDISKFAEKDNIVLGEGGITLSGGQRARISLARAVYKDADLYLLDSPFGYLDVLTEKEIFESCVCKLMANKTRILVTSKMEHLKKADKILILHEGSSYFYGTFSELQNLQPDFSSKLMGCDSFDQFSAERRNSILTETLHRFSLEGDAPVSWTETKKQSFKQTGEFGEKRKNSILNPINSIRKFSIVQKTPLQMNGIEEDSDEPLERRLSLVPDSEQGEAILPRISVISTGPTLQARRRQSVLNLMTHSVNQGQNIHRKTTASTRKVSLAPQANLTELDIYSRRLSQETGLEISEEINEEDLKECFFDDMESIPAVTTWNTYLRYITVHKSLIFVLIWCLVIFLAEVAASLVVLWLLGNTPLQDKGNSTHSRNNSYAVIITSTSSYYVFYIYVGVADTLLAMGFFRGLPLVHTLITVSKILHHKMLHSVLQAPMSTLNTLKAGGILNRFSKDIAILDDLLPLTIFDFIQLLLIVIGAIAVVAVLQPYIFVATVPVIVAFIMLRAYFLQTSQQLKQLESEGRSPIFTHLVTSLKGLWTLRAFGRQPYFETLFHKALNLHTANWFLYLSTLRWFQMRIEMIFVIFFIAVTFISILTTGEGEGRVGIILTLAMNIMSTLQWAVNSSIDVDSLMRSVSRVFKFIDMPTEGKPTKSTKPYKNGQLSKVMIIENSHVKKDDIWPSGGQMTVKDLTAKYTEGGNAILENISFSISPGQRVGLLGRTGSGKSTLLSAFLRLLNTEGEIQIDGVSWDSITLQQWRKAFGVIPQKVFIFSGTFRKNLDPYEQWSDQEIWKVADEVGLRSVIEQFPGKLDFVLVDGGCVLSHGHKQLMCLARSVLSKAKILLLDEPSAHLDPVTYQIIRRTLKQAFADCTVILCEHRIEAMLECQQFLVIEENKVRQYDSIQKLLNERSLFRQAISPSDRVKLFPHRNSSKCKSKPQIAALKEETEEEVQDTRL
Chain of ORF 73 (O40947 whole entry): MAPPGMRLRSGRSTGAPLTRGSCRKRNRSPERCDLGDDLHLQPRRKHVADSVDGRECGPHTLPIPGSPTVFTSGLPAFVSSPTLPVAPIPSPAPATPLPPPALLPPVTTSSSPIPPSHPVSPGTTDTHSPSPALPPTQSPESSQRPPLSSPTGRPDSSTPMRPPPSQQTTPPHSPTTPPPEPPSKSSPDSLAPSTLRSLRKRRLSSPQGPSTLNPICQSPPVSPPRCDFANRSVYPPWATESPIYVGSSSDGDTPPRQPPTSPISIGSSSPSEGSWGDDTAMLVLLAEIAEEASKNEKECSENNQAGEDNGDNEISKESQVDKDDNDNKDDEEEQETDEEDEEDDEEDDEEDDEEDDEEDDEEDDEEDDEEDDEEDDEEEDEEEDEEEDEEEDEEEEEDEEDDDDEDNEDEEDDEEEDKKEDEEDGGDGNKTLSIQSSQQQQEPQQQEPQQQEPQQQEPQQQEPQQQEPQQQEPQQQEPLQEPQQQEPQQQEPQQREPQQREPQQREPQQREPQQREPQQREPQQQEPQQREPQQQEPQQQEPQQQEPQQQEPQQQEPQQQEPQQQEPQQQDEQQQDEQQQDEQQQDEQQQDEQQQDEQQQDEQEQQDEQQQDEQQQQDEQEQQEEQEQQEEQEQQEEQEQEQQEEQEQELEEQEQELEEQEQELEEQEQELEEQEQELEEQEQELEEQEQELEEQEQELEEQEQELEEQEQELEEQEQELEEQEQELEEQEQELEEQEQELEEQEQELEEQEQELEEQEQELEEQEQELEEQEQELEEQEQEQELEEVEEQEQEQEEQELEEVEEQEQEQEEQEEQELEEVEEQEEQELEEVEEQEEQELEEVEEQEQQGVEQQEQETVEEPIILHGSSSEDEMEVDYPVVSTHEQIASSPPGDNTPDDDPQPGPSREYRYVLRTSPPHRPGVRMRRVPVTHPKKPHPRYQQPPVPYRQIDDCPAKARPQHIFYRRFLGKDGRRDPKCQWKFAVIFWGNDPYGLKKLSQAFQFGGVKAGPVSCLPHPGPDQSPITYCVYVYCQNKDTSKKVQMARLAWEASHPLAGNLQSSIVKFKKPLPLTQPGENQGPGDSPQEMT
Chain of Induced myeloid leukemia cell differentiation protein Mcl-1 (Q07820 whole entry): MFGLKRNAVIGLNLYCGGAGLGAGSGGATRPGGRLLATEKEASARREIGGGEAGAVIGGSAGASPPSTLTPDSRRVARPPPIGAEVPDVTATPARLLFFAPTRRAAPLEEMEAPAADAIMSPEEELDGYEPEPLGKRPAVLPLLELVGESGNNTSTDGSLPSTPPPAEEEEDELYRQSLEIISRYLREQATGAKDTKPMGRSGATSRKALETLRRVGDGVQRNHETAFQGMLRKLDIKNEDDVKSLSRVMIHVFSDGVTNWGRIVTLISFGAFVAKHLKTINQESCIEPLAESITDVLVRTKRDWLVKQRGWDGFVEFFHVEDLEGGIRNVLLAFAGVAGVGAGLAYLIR
Chain of Caspase-6 (P55212 24-179 limits assumed): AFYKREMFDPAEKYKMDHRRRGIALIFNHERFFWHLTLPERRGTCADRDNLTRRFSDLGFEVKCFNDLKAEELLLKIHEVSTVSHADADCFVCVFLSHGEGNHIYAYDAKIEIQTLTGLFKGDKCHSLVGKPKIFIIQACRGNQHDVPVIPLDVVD
Chain of Caspase-6 (P55212 194-293 limits assumed): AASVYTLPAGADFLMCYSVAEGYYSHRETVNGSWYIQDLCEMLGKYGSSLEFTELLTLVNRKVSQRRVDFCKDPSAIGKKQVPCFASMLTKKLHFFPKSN
Chain of Tumor necrosis factor (P01375 whole entry): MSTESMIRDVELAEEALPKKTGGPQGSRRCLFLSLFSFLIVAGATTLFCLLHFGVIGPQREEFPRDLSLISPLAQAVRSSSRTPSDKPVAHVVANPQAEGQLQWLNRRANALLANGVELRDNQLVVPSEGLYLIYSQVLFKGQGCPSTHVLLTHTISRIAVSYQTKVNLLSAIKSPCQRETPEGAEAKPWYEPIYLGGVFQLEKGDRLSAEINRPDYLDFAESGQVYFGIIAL

Compound: O=C(NC(=S)Nc1sc2c(c1C(=O)O)CCCC2)c1ccccc1
- IC50 (Tumor necrosis factor): 15.5 µM (active)
- IC50 (HEK293): > 20 µM (inactive)
- IC50 [1]: 17.3 µM (active)
- IC50 [2]: 14.4 µM (active)

Compound: O=c1oc2ccccc2c2oc3cc(O)c(O)cc3c12
- AC50 (Caspase-7): 59.8 µM (active)
- IC50 [3]: 3.52 µM (active)
- AC50 (Caspase-6): 4.48 µM (active)
- IC50 [4]: 6.69 µM (active)
- AC50 (Caspase-3): 22.1 µM (active)
- AC50 (Caspase-8): > 70 µM (inactive)
- IC50 (Large T antigen): 6.52 µM (active)
- IC50 (Albumin): > 94.2 µM (inactive)

Compound: CCOc1ccc2c(c1)sc(N)[n+]2Cc1cc(C)cc2cccnc12
- IC50 (J774.A1): 0.229 µM (active)
- IC50 [5]: > 80 µM (inactive)

Compound: Cc1csc(NC(=O)CCCC(=O)O)c1-c1nc2ccccc2s1
- CC50 [6]: > 40 µM (active)
- IC50 (Aminopeptidase N): 11.2 µM (active)
- IC50 [7]: 2.67 µM (active)
- IC50 (Leucine aminopeptidase): 35.4 µM (active)
- IC50 [8]: 3.28 µM (active)

Compound: c1ccc(C(Nc2cccnc2)c2ccccc2)cc1
- AC50 [9]: 33 µM (active)

Compound: CN1C(=O)/C(=N\C2CCCCC2)c2c3ccccc3c(O)c3cccc1c23
- AC50 (Salmon testes DNA): 101 µM (active)
- AC50 [10]: 8.48 µM (active)
- AC50 (ORF 73): 77.3 µM (active)

Compound: Cc1cccc(NCC(=O)N/N=C\c2cccc(Oc3ccccc3)c2)c1
- EC50 [11]: > 150 µM (not active)
- EC50 (Streptokinase A): > 150 µM (not active)
- EC50 (Streptococcus): > 150 µM (not active)
- Absolute IC50 (XBP1) (X-box-binding protein 1): 10 µM
